These results are taken from article PMC5218480 (PLoS ONE, 2017).

This assay has as its system MV-4-11 cells. Description: Gene expression microarray analysis (Affymetrix PrimeView) and GSEA. It counts as cell-based, human. Also on record: RFU PODN (11730768_x_at) / Fold change /veh PODN (11730768_x_at) / RFU LINC00158 (11744669_a_at) / Fold change /veh LINC00158 (11744669_a_at) / RFU DUSP10 (11751237_a_at) / Fold change /veh DUSP10 (11751237_a_at) / RFU ID3 (11757404_x_at) / Fold change /veh ID3 (11757404_x_at) / RFU PLEKHG5 (11737974_s_at) / Fold change /veh PLEKHG5 (11737974_s_at) / RFU LRRC4B (11730491_at) / Fold change /veh LRRC4B (11730491_at) / RFU GIMAP4 (11747438_a_at) / Fold change /veh GIMAP4 (11747438_a_at) / RFU KRT8 (11758183_x_at) / Fold change /veh KRT8 (11758183_x_at) / RFU CNN1 (11734310_a_at) / Fold change /veh CNN1 (11734310_a_at) / RFU VPS37D (11726825_at) / Fold change /veh VPS37D (11726825_at) / RFU C10orf10 (11716522_x_at) / Fold change /veh C10orf10 (11716522_x_at) / RFU KIR2DL2 /// KIR2DL4 /// KIR2DL5A /// KIR2DL5B /// KIR2DS1 /// KIR2DS2 /// KIR2DS3 /// KIR2DS4 /// KIR3DL3 /// KIR3DL3 /// KIR3DS1 (11738374_at) / Fold change /veh KIR2DL2 /// KIR2DL4 /// KIR2DL5A /// KIR2DL5B /// KIR2DS1 /// KIR2DS2 /// KIR2DS3 /// KIR2DS4 /// KIR3DL3 /// KIR3DL3 /// KIR3DS1 (11738374_at) / RFU C1QL1 (11718748_at) / Fold change /veh C1QL1 (11718748_at) / RFU TMPRSS4 (11747572_a_at) / Fold change /veh TMPRSS4 (11747572_a_at) / RFU HAMP (11756126_x_at) / Fold change /veh HAMP (11756126_x_at) / RFU RNFT2 (11725882_a_at) / Fold change /veh RNFT2 (11725882_a_at) / RFU NR4A2 (11747474_a_at) / Fold change /veh NR4A2 (11747474_a_at) / RFU ABCC12 (11746883_a_at) / Fold change /veh ABCC12 (11746883_a_at) / RFU TMEM136 (11760407_x_at) / Fold change /veh TMEM136 (11760407_x_at) / RFU CLDN22 /// WWC2 (11732394_at) / Fold change /veh CLDN22 /// WWC2 (11732394_at) / RFU HLA-DPB1 (11760878_x_at) / Fold change /veh HLA-DPB1 (11760878_x_at) / RFU SPINT1 (11716480_a_at) / Fold change /veh SPINT1 (11716480_a_at) / RFU GAP43 (11754022_s_at) / Fold change /veh GAP43 (11754022_s_at) / RFU A4GNT (11735810_at) / Fold change /veh A4GNT (11735810_at) / RFU PRB3 (11715151_x_at) / Fold change /veh PRB3 (11715151_x_at) / RFU TUBB4B (11761932_at) / Fold change /veh TUBB4B (11761932_at) / RFU CAPN14 (11732068_a_at) / Fold change /veh CAPN14 (11732068_a_at) / RFU TMCC2 (11721928_a_at) / Fold change /veh TMCC2 (11721928_a_at) / RFU IRGQ (11745062_a_at) / Fold change /veh IRGQ (11745062_a_at) / RFU FAM174B (11720279_a_at) / Fold change /veh FAM174B (11720279_a_at) / RFU TMPRSS4 (11748680_a_at) / Fold change /veh TMPRSS4 (11748680_a_at) / RFU FAM212B (11763350_a_at) / Fold change /veh FAM212B (11763350_a_at) / RFU PLEKHG5 (11743358_a_at) / Fold change /veh PLEKHG5 (11743358_a_at) / RFU ZSCAN30 (11745921_a_at) / Fold change /veh ZSCAN30 (11745921_a_at) / RFU CMKLR1 (11741424_a_at) / Fold change /veh CMKLR1 (11741424_a_at) / RFU LOC101060620 /// MAPK8IP1 (11723275_at) / Fold change /veh LOC101060620 /// MAPK8IP1 (11723275_at) / RFU SPTSSB (11747773_x_at) / Fold change /veh SPTSSB (11747773_x_at) / RFU PRSS12 (11739890_at) / Fold change /veh PRSS12 (11739890_at) / RFU BIN1 (11741810_x_at) / Fold change /veh BIN1 (11741810_x_at) / RFU WNT11 (11732464_a_at) / Fold change /veh WNT11 (11732464_a_at) / RFU C10orf10 (11716521_a_at) / Fold change /veh C10orf10 (11716521_a_at) / RFU C5orf56 (11738089_at) / Fold change /veh C5orf56 (11738089_at) / RFU CYB561 (11721691_x_at) / Fold change /veh CYB561 (11721691_x_at) / RFU ANKRD19P (11752326_a_at) / Fold change /veh ANKRD19P (11752326_a_at) / RFU OR2T12 /// OR2T33 /// OR2T8 (11738714_s_at) / Fold change /veh OR2T12 /// OR2T33 /// OR2T8 (11738714_s_at) / RFU VCAN (11748164_a_at) / Fold change /veh VCAN (11748164_a_at) / RFU JSRP1 (11732532_at) / Fold change /veh JSRP1 (11732532_at) / RFU KRTAP10-11 (11738290_x_at) / Fold change /veh KRTAP10-11 (11738290_x_at) / RFU MYO3A (11730013_a_at) / Fold change /veh MYO3A (11730013_a_at) / RFU EBF3 (11725865_a_at) / Fold change /veh EBF3 (11725865_a_at) / RFU CAMK2N1 (11719241_x_at) / Fold change /veh CAMK2N1 (11719241_x_at) / RFU C5orf56 (11738088_a_at) / Fold change /veh C5orf56 (11738088_a_at) / RFU OLFML3 (11715873_a_at) / Fold change /veh OLFML3 (11715873_a_at) / RFU LOC100653217 /// NTM (11731650_a_at) / Fold change /veh LOC100653217 /// NTM (11731650_a_at) / RFU MAPK11 (11762145_a_at) / Fold change /veh MAPK11 (11762145_a_at) / RFU FIZ1 (11724087_x_at) / Fold change /veh FIZ1 (11724087_x_at) / RFU OASL (11726364_x_at) / Fold change /veh OASL (11726364_x_at) / RFU SOX15 (11748057_x_at) / Fold change /veh SOX15 (11748057_x_at) / RFU CD79A (11719716_a_at) / Fold change /veh CD79A (11719716_a_at) / RFU HIST1H1D (11736915_at) / Fold change /veh HIST1H1D (11736915_at) / RFU CASKIN2 (11723855_a_at) / Fold change /veh CASKIN2 (11723855_a_at) / RFU LOC730098 (11760151_x_at) / Fold change /veh LOC730098 (11760151_x_at) / RFU OR4N2 (11742367_at) / Fold change /veh OR4N2 (11742367_at) / RFU PRRT2 (11749266_a_at) / Fold change /veh PRRT2 (11749266_a_at) / RFU SNX32 (11753110_a_at) / Fold change /veh SNX32 (11753110_a_at) / RFU CDHR5 (11726645_a_at) / Fold change /veh CDHR5 (11726645_a_at) / RFU RCAN1 (11760418_a_at) / Fold change /veh RCAN1 (11760418_a_at) / RFU FAM167A (11723789_a_at) / Fold change /veh FAM167A (11723789_a_at) / RFU FAM26E (11764081_at) / Fold change /veh FAM26E (11764081_at) / RFU ISYNA1 (11749810_s_at) / Fold change /veh ISYNA1 (11749810_s_at) / RFU ACY1 (11761880_at) / Fold change /veh ACY1 (11761880_at) / RFU 11764098_at / Fold change /veh 11764098_at / RFU SAMD14 (11745864_x_at) / Fold change /veh SAMD14 (11745864_x_at) / RFU NPB (11741838_a_at) / Fold change /veh NPB (11741838_a_at) / RFU TMPRSS6 (11731388_a_at) / Fold change /veh TMPRSS6 (11731388_a_at) / RFU KRTAP10-2 (11738614_at) / Fold change /veh KRTAP10-2 (11738614_at) / RFU ARHGAP8 /// PRR5-ARHGAP8 (11727945_x_at) / Fold change /veh ARHGAP8 /// PRR5-ARHGAP8 (11727945_x_at) / RFU KRTAP5-7 /// NADSYN1 (11734609_at) / Fold change /veh KRTAP5-7 /// NADSYN1 (11734609_at) / RFU RASL12 (11751679_a_at) / Fold change /veh RASL12 (11751679_a_at) / RFU CDKN2B (11736163_a_at) / Fold change /veh CDKN2B (11736163_a_at) / RFU PRF1 (11729649_at) / Fold change /veh PRF1 (11729649_at) / RFU, ZNF638 /// ZNF638-IT1 / Fold change vs veh, ZNF638 /// ZNF638-IT1 / RFU, PANK3 / Fold change vs veh, PANK3 / RFU, SH3YL1 / Fold change vs veh, SH3YL1 / RFU, ZEB2 / Fold change vs veh, ZEB2 / RFU, NRIP1 / Fold change vs veh, NRIP1 / RFU, PTTG1IP / Fold change vs veh, PTTG1IP / RFU, CAPN2 / Fold change vs veh, CAPN2 / RFU, MED14 / Fold change vs veh, MED14 / RFU, SNORA58 / Fold change vs veh, SNORA58 / RFU, C1orf63 / Fold change vs veh, C1orf63 / RFU, LRRFIP1 / Fold change vs veh, LRRFIP1 / RFU, NDUFAF7 / Fold change vs veh, NDUFAF7 / RFU, SLC12A2 / Fold change vs veh, SLC12A2 / RFU, IBTK / Fold change vs veh, IBTK / RFU, ESF1 / Fold change vs veh, ESF1 / Fold change vs veh, TMEM50B / RFU, TAOK1 / Fold change vs veh, TAOK1 / RFU, ACBD3 / Fold change vs veh, ACBD3 / RFU, TMA16 / Fold change vs veh, TMA16 / RFU, RWDD3 / Fold change vs veh, RWDD3 / RFU, BCAT1 / Fold change vs veh, BCAT1 / RFU, EDEM3 / Fold change vs veh, EDEM3 / RFU, TMEM33 / Fold change vs veh, TMEM33 / RFU, WDR75 / Fold change vs veh, WDR75 / RFU, AHCTF1 / Fold change vs veh, AHCTF1 / RFU, TFRC / Fold change vs veh, TFRC / RFU, ZDHHC17 / Fold change vs veh, ZDHHC17 / RFU, NOM1 / Fold change vs veh, NOM1 / RFU, ARL8B / Fold change vs veh, ARL8B / RFU, ZBTB11 / Fold change vs veh, ZBTB11 / RFU, TAMM41 / Fold change vs veh, TAMM41 / RFU, KIAA1704 /// LOC100996395 / Fold change vs veh, KIAA1704 /// LOC100996395 / RFU, ING1 / Fold change vs veh, ING1 / RFU, TRMT61B / Fold change vs veh, TRMT61B / RFU, FUBP3 / Fold change vs veh, FUBP3 / RFU, TP53 / Fold change vs veh, TP53 / RFU, TNKS2 / Fold change vs veh, TNKS2 / RFU, ZFP14 / Fold change vs veh, ZFP14 / RFU, ACTR2 / Fold change vs veh, ACTR2 / RFU, PPP3R1 / Fold change vs veh, PPP3R1 / RFU, PIK3R1 / Fold change vs veh, PIK3R1 / RFU, HNRNPA1 / Fold change vs veh, HNRNPA1 / RFU, RNF170 / Fold change vs veh, RNF170 / RFU, ZNF28 / Fold change vs veh, ZNF28 / RFU, RNGTT / Fold change vs veh, RNGTT / RFU, OGT / Fold change vs veh, OGT / RFU, BRD1 / Fold change vs veh, BRD1 / RFU, MARS / Fold change vs veh, MARS / RFU, ZNF655 / Fold change vs veh, ZNF655 / RFU, FAHD1 / Fold change vs veh, FAHD1 / RFU, BDP1 / Fold change vs veh, BDP1 / RFU, LRRCC1 / Fold change vs veh, LRRCC1 / RFU, ARID1A / Fold change vs veh, ARID1A / RFU, ZNF146 / Fold change vs veh, ZNF146 / RFU, ZNF330 / Fold change vs veh, ZNF330 / RFU, GPN3 / Fold change vs veh, GPN3 / RFU, C9orf123 / Fold change vs veh, C9orf123 / RFU, N4BP2L2 / Fold change vs veh, N4BP2L2 / RFU, ARFIP1 / Fold change vs veh, ARFIP1 / RFU, FAM179B / Fold change vs veh, FAM179B / RFU, BCL10 / Fold change vs veh, BCL10 / RFU, UHRF1BP1L / Fold change vs veh, UHRF1BP1L / RFU, BET1 / Fold change vs veh, BET1 / RFU, CNOT2 / Fold change vs veh, CNOT2 / RFU, ZNF268 / Fold change vs veh, ZNF268 / Fold change vs veh, ZNF507 / RFU, DGCR2 / Fold change vs veh, DGCR2 / RFU, WDSUB1 / Fold change vs veh, WDSUB1 / Fold change vs veh, HSP90B1 /// MIR3652 / RFU, ADSS / Fold change vs veh, ADSS / RFU, GK / Fold change vs veh, GK / RFU, ZNF148 / Fold change vs veh, ZNF148 / RFU, TAF9 / Fold change vs veh, TAF9 / RFU, SLC1A5 / Fold change vs veh, SLC1A5 / RFU, SLMO2 / Fold change vs veh, SLMO2 / RFU, ABCC4 / Fold change vs veh, ABCC4 / RFU, LOC101060439 /// RAP1B / Fold change vs veh, LOC101060439 /// RAP1B / RFU, RFX7 / Fold change vs veh, RFX7 / RFU, GTPBP10 / Fold change vs veh, GTPBP10 / RFU, CNEP1R1 / Fold change vs veh, CNEP1R1 / RFU, BIVM-ERCC5 /// ERCC5 / Fold change vs veh, BIVM-ERCC5 /// ERCC5 / RFU, ILF3 / Fold change vs veh, ILF3 / RFU 11762660_at / Fold change /veh 11762660_at / RFU VCAN (11757783_s_at) / Fold change /veh VCAN (11757783_s_at) / RFU DDX43 (11728927_at) / Fold change /veh DDX43 (11728927_at) / RFU KRT8 (11758188_x_at) / Fold change /veh KRT8 (11758188_x_at) / RFU NKD1 (11759106_at) / Fold change /veh NKD1 (11759106_at) / RFU SRD5A1 (11742802_a_at) / Fold change /veh SRD5A1 (11742802_a_at) / RFU TPSAB1 /// TPSB2 (11721975_s_at) / Fold change /veh TPSAB1 /// TPSB2 (11721975_s_at) / RFU GSTM3 (11746129_a_at) / Fold change /veh GSTM3 (11746129_a_at) / RFU IL23R (11737362_x_at) / Fold change /veh IL23R (11737362_x_at) / RFU TMEM51 (11727254_a_at) / Fold change /veh TMEM51 (11727254_a_at) / RFU PIWIL2 (11732686_x_at) / Fold change /veh PIWIL2 (11732686_x_at) / RFU ORM1 (11744905_x_at) / Fold change /veh ORM1 (11744905_x_at) / RFU CCDC152 (11743942_at) / Fold change /veh CCDC152 (11743942_at) / RFU ECM1 (11717891_a_at) / Fold change /veh ECM1 (11717891_a_at) / RFU IL23R (11748794_a_at) / Fold change /veh IL23R (11748794_a_at) / RFU TNFAIP8L3 (11732012_x_at) / Fold change /veh TNFAIP8L3 (11732012_x_at) / RFU MBOAT4 (11741988_at) / Fold change /veh MBOAT4 (11741988_at) / RFU 11764193_at / Fold change /veh 11764193_at / RFU TMEM53 (11763286_at) / Fold change /veh TMEM53 (11763286_at) / RFU MAGEB2 (11727129_at) / Fold change /veh MAGEB2 (11727129_at) / RFU TMEM200A (11744735_a_at) / Fold change /veh TMEM200A (11744735_a_at) / RFU CCDC152 (11751479_a_at) / Fold change /veh CCDC152 (11751479_a_at) / RFU FAM211A (11726209_a_at) / Fold change /veh FAM211A (11726209_a_at) / RFU RGS16 (11746705_a_at) / Fold change /veh RGS16 (11746705_a_at) / RFU VCAN (11755009_s_at) / Fold change /veh VCAN (11755009_s_at) / RFU RHOB (11743442_s_at) / Fold change /veh RHOB (11743442_s_at) / RFU RGS16 (11720943_a_at) / Fold change /veh RGS16 (11720943_a_at) / RFU RGS16 (11720944_at) / Fold change /veh RGS16 (11720944_at) / RFU, VPS4B / Fold change vs veh, VPS4B / RFU, CREB1 / Fold change vs veh, CREB1 / RFU, DNAJC13 / Fold change vs veh, DNAJC13 / RFU, GNAQ / Fold change vs veh, GNAQ / RFU, CDK5R1 / Fold change vs veh, CDK5R1 / RFU, ZRANB3 / Fold change vs veh, ZRANB3 / RFU, CUL4A / Fold change vs veh, CUL4A / RFU, CCNY / Fold change vs veh, CCNY / RFU, UFL1 / Fold change vs veh, UFL1 / RFU, COG3 / Fold change vs veh, COG3 / RFU, DIAPH2 / Fold change vs veh, DIAPH2 / RFU, SKA2 / Fold change vs veh, SKA2 / RFU, AFF3 / Fold change vs veh, AFF3 / RFU, LMF1 / Fold change vs veh, LMF1 / RFU, IPO11 / Fold change vs veh, IPO11 / RFU, DFFB / Fold change vs veh, DFFB / RFU, FOXP1 / Fold change vs veh, FOXP1 / RFU, CARD8 / Fold change vs veh, CARD8 / RFU, STRN3 / Fold change vs veh, STRN3 / RFU, ADK / Fold change vs veh, ADK / RFU, RASSF2 / Fold change vs veh, RASSF2 / RFU, WIPF1 / Fold change vs veh, WIPF1 / RFU, LARP1B / Fold change vs veh, LARP1B / RFU, RASA1 / Fold change vs veh, RASA1 / RFU, RB1 / Fold change vs veh, RB1 / RFU, PPFIA1 / Fold change vs veh, PPFIA1 / RFU, MAT2A / Fold change vs veh, MAT2A / RFU, CCT5 / Fold change vs veh, CCT5 / RFU, WDR92 / Fold change vs veh, WDR92 / RFU, CUX1 / Fold change vs veh, CUX1 / RFU, TTC7A / Fold change vs veh, TTC7A / RFU, TMEM135 / Fold change vs veh, TMEM135 / RFU, DEPTOR / Fold change vs veh, DEPTOR / RFU, CPM / Fold change vs veh, CPM / RFU, DNAJB6 / Fold change vs veh, DNAJB6 / RFU, CACNA2D3 / Fold change vs veh, CACNA2D3 / RFU, DTX4 / Fold change vs veh, DTX4 / RFU, TFCP2 / Fold change vs veh, TFCP2 / RFU, GMCL1 /// GMCL1P1 / Fold change vs veh, GMCL1 /// GMCL1P1 / RFU, AEBP2 / Fold change vs veh, AEBP2 / RFU, SNHG1 /// SNORD22 /// SNORD25 /// SNORD26 /// SNORD27 /// SNORD28 /// SNORD29 /// SNORD31 / Fold change vs veh, SNHG1 /// SNORD22 /// SNORD25 /// SNORD26 /// SNORD27 /// SNORD28 /// SNORD29 /// SNORD31 / Fold change (Aza/veh), C12orf56 (ProbeSet 11735607_a_at) / Fold change (ACY-1035/veh), C12orf56 (ProbeSet 11735607_a_at) / Fold change (Aza/veh), FGFR1OP (ProbeSet 11751329_s_at) / Fold change (ACY-1035/veh), FGFR1OP (ProbeSet 11751329_s_at) / Fold change (Aza/veh), VPS36 (ProbeSet 11739960_a_at) / Fold change (ACY-1035/veh), VPS36 (ProbeSet 11739960_a_at) / RFU SYPL1 (11715823_x_at) / Fold change /veh SYPL1 (11715823_x_at) / RFU IGFBP7 (11715501_s_at) / Fold change /veh IGFBP7 (11715501_s_at) / RFU REEP3 (11722064_at) / Fold change /veh REEP3 (11722064_at) / RFU IGLL1 (11728026_x_at) / Fold change /veh IGLL1 (11728026_x_at): dose or concentration left out as unconfirmed. As to conditions: MV-4-11 cells, 48 hours.

Molecules are shown by their SMILES.

Regarding `Nc1ccc(-c2cccs2)cc1NC(=O)c1ccc2c(c1)cc(C1CC1)n2CCN1CCOCC1` [ACY-1035], the “RFU KIR2DL2 /// KIR2DL4 /// KIR2DL5A /// KIR2DL5B /// KIR2DS1 /// KIR2DS2 /// KIR2DS3 /// KIR2DS4 /// KIR3DL3 /// KIR3DL3 /// KIR3DS1 (11738374_at)” value is 11.07 RFU.
